Source: patent publication US5326882A, “Chemiluminescent 3-(substituted Adamant-2'-Ylidene) 1,2-dioxetanes” (Tropix, Inc., priority 1992, dated 1994)

Legend:
[1] = target: T1, alkaline phosphatase (calf intestine; Biozyme) (Bos taurus, UniProt P19111); experiment: Total dephosphorylation, chemiluminescence decay (Example XIII); format: biochemical; conditions: 30° C., carbonate/bicarbonate buffer, listed as OH-Adamant-2'-ylidene (B isomer)
T1 construct: purchased Biozyme; host or cells: calf intestine
Description: A comparison of the total luminescence emission from AMPPD and from the corresponding 1,2-dioxetanes whose adamant-2'-ylidene groups are monosubstituted with hydroxy (A and B isomers), chloro and bromo groups was made by carrying out total dephosphorylation experiments on each of these compounds.
An aqueous solution of the 1,2-dioxetane (4.0 mm) in 0.05M sodium carbonate/sodium bicarbonate containing 1 mM magnesium chloride was prepared and then equilibrated at 30° C. Ten μl of a 7.64×10M aqueous solution of alkaline phosphatase (calf intestine; Biozyme) was then added, and the chemiluminescence from the resulting solution was recorded using a Turner Model 20E luminometer (Turner Instruments; Sunnyvale, Calif.).
The rates of chemiluminescence decay for each of the five compounds in question, expressed in relative light units (RLU's) per minute, are given in the following table.

[2] = target: alkaline phosphatase (Bos taurus, UniProt P19111); experiment: Chemiluminescent signal and signal:background with enhancer polymers (Example XVII); format: biochemical
Description: Four sets of three tubes each, each tube in each set containing 450 μl of a 0.4 mM aqueous solution of one of the four 1,2-dioxetanes being compared in 0.1M diethanolamine containing 1 mM magnesium chloride, 0.02% sodium azide and 0.1% of the enhancer polymer, pH 10.0 (substrate buffer) were prepared and the background signal from each tube measured using a Berthold LB 952T luminometer (Berthold Instruments; Wildbad, Federal Republic of Germany).
Next, 50 μl of an aqueous solution, 2.83×10^-12 M of alkaline phosphatase in 0.1M diethanolamine containing 1 mM magnesium chloride, 0.02% sodium azide, pH 10.0, (final enzyme concentration 2.83×10^-13 M) was added to each tube and the chemiluminescent signals were measured in the luminometer at 5 and 20 minutes. The intensity of the chemiluminescent signals and the signal: background ratios obtained for each of the four 1,2-dioxetanes in the presence of the enhancer polymers are shown in Table III below.
The enhancer polymers used, and the symbols for such polymers used in Table III, were the following: […]

Chain of alkaline phosphatase (P19111 20-506 limits assumed): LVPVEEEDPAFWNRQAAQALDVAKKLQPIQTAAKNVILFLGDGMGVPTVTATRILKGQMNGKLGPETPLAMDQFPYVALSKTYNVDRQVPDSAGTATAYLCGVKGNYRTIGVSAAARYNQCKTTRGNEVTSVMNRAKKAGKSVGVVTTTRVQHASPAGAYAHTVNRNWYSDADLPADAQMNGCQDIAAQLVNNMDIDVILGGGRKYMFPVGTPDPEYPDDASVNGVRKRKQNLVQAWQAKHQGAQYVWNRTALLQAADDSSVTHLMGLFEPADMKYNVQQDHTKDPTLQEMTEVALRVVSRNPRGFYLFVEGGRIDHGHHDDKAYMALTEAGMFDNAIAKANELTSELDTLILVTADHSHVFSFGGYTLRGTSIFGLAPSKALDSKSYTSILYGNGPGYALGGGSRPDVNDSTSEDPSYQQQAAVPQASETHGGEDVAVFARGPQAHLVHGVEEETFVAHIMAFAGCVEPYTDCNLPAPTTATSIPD
T1 sequence (P19111 20-506 limits assumed): as above

COC1(c2cccc(OP(=O)(O)O)c2)OOC12C1CC3CC2CC(O)(C3)C1 (single isomer, unassigned) [B-OH-AMPPD, disodium 3-(4-methoxyspiro-[1,2-dioxetane-3,2'-(5'-hydroxy)tricyclo[3.3.1.1^3,7]decan]-4-yl)phenyl phosphate]
Total Decay Time [1]: 10 min
Decay Rate I ([1]; RLU's per minute): 1.5 RLU's per minute
S/N ([2]; polymer BAEDM, 5 min): 25.4
SIGNAL ([2]; polymer BAEDM, 5 min): 4101.3
S/N ([2]; polymer BAEDM, 20 min): 34.3
SIGNAL ([2]; polymer BAEDM, 20 min): 5538.2
S/N ([2]; polymer BAEDM, time 0): 1.0
SIGNAL ([2]; polymer BAEDM, time 0 (background, before enzyme)): 161.4
S/N ([2]; polymer BZ, 5 min): 18.8
SIGNAL ([2]; polymer BZ, 5 min): 2246.4
S/N ([2]; polymer BZ, 20 min): 22.4
SIGNAL ([2]; polymer BZ, 20 min): 2669.2
S/N ([2]; polymer BZ, time 0): 1.0
SIGNAL ([2]; polymer BZ, time 0 (background, before enzyme)): 119.4
S/N ([2]; polymer DAA TMQ, 5 min): 40.3
SIGNAL ([2]; polymer DAA TMQ, 5 min): 5486.8
S/N ([2]; polymer DAA TMQ, 20 min): 49.0
SIGNAL ([2]; polymer DAA TMQ, 20 min): 6670.3
S/N ([2]; polymer DAA TMQ, time 0): 1.0
SIGNAL ([2]; polymer DAA TMQ, time 0 (background, before enzyme)): 136.0
S/N ([2]; polymer DME(OH)B, 5 min): 20.0
SIGNAL ([2]; polymer DME(OH)B, 5 min): 2640.9
S/N ([2]; polymer DME(OH)B, 20 min): 30.2
SIGNAL ([2]; polymer DME(OH)B, 20 min): 3990.6
S/N ([2]; polymer DME(OH)B, time 0): 1.0
SIGNAL ([2]; polymer DME(OH)B, time 0 (background, before enzyme)): 132.1
S/N ([2]; polymer DMEB, 5 min): 35.7
SIGNAL ([2]; polymer DMEB, 5 min): 4451.6
S/N ([2]; polymer DMEB, 20 min): 48.3
SIGNAL ([2]; polymer DMEB, 20 min): 6023.9
S/N ([2]; polymer DMEB, time 0): 1.0
SIGNAL ([2]; polymer DMEB, time 0 (background, before enzyme)): 124.6
S/N ([2]; polymer DMQ TEQ, 5 min): 63.3
SIGNAL ([2]; polymer DMQ TEQ, 5 min): 9213.8
S/N ([2]; polymer DMQ TEQ, 20 min): 57.0
SIGNAL ([2]; polymer DMQ TEQ, 20 min): 8288.0
S/N ([2]; polymer DMQ TEQ, time 0): 1.0
SIGNAL ([2]; polymer DMQ TEQ, time 0 (background, before enzyme)): 145.5
S/N ([2]; polymer MPB, 5 min): 71.5
SIGNAL ([2]; polymer MPB, 5 min): 10021.3
S/N ([2]; polymer MPB, 20 min): 78.0
SIGNAL ([2]; polymer MPB, 20 min): 10939.0
S/N ([2]; polymer MPB, time 0): 1.0
SIGNAL ([2]; polymer MPB, time 0 (background, before enzyme)): 140.3
S/N ([2]; polymer NONE, 5 min): 26.3
SIGNAL ([2]; polymer NONE, 5 min, enzyme 2.83×10^-13 M): 3314.8
S/N ([2]; polymer NONE, 20 min): 29.8
SIGNAL ([2]; polymer NONE, 20 min, enzyme 2.83×10^-13 M): 3767.9
S/N ([2]; polymer NONE, time 0): 1.0
SIGNAL ([2]; polymer NONE, time 0 (background, before enzyme)): 126.3
S/N ([2]; polymer S/TMQ(1:2), 5 min): 20.6
SIGNAL ([2]; polymer S/TMQ(1:2), 5 min): 3305.1
S/N ([2]; polymer S/TMQ(1:2), 20 min): 35.7
SIGNAL ([2]; polymer S/TMQ(1:2), 20 min): 5722.3
S/N ([2]; polymer S/TMQ(1:2), time 0): 1.0
SIGNAL ([2]; polymer S/TMQ(1:2), time 0 (background, before enzyme)): 160.3
S/N ([2]; polymer S/TMQ(1:4), 5 min): 35.6
SIGNAL ([2]; polymer S/TMQ(1:4), 5 min): 4775.3
S/N ([2]; polymer S/TMQ(1:4), 20 min): 53.1
SIGNAL ([2]; polymer S/TMQ(1:4), 20 min): 7120.3
S/N ([2]; polymer S/TMQ(1:4), time 0): 1.0
SIGNAL ([2]; polymer S/TMQ(1:4), time 0 (background, before enzyme)): 134.0
SIGNAL ([2]; polymer SAPPHIRE (BDMQ), time 0 (background, before enzyme)): 138.8
S/N ([2]; polymer SAPPHIRE, 5 min): 78.6
SIGNAL ([2]; polymer SAPPHIRE, 5 min): 10908.4
S/N ([2]; polymer SAPPHIRE, 20 min): 105.3
SIGNAL ([2]; polymer SAPPHIRE, 20 min): 14625.4
S/N ([2]; polymer SAPPHIRE, time 0): 1.0
S/N ([2]; polymer TBQ, 5 min): 97.6
SIGNAL ([2]; polymer TBQ, 5 min): 15508.5
S/N ([2]; polymer TBQ, 20 min): 131.1
SIGNAL ([2]; polymer TBQ, 20 min): 20830.8
S/N ([2]; polymer TBQ, time 0): 1.0
SIGNAL ([2]; polymer TBQ, time 0 (background, before enzyme)): 158.9
S/N ([2]; polymer TEQ, 5 min): 61.8
SIGNAL ([2]; polymer TEQ, 5 min): 8806.2
S/N ([2]; polymer TEQ, 20 min): 81.1
SIGNAL ([2]; polymer TEQ, 20 min): 11563.4
S/N ([2]; polymer TEQ, time 0): 1.0
SIGNAL ([2]; polymer TEQ, time 0 (background, before enzyme)): 142.6
S/N ([2]; polymer TMQ, 5 min): 49.8
SIGNAL ([2]; polymer TMQ, 5 min): 6258.9
S/N ([2]; polymer TMQ, 20 min): 70.5
SIGNAL ([2]; polymer TMQ, 20 min): 8857.8
S/N ([2]; polymer TMQ, time 0): 1.0
SIGNAL ([2]; polymer TMQ, time 0 (background, before enzyme)): 125.7
